In patent US9540343B2 (Gilead Sciences, Inc., priority 2011, dated 2017):

Experiments:
[1] = tested on: HIV-IIIb; assay: Test A: Antiviral assay in MT4 cells; format: cell-based, HIV-1; details: MT-4 cells infected with HIV-IIIb, 5 days, CellTiter-Glo; for inhibition at 2 µM: Human immunodeficiency virus 1, IIIB, MT4, 120 h, read-out: % inhibition at 2 μM, percent inhibition of virus-induced cell killing, from dose response curve at 2 uM drug
[2] = in vitro
Procedure, shortened: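 Cytoprotection read-out: CellTiter-Glo chemiluminescence after 5 days at 37 °C of HIV-IIIb-infected MT-4 cells (m.o.i. 0.003) with compound in 10-point 3-fold dilutions, quadruplicate, 10% FBS. Cytotoxicity (CC50) measured identically without virus.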

[3] = human, uninfected MT-4 cells, CC50 (nM), same protocol as Test A, CellTiter-Glo

## NC(=O)c1cc(-c2cccnc2[C@H](Cc2cc(F)cc(F)c2)NC(=O)Cn2ccc3cc(F)c(Cl)cc32)ccc1F [Example 568, (S)-5-(2-(1-(2-(6-chloro-5-fluoro-1H-indol-1-yl)acetamido)-2-(3,5-difluorophenyl)ethyl)pyridin-3-yl)-2-fluorobenzamide]
[1]
  inhibition at 2 µM: 42%
[2]; [3]
  CC50 at 5 days: 11400 nM

## NC(=O)c1cccc(-c2cccnc2[C@H](Cc2cc(F)cc(F)c2)NC(=O)Cc2ccccn2)c1 [Example 569, (S)-3-(2-(2-(3,5-difluorophenyl)-1-(2-(pyridin-2-yl)acetamido)ethyl)pyridin-3-yl)benzamide]
[1]
  inhibition at 2 µM: 11%
[2]; [3]
  CC50 at 5 days: > 53000 nM

## COCCOc1ccc(-c2cccnc2[C@H](Cc2cc(F)cc(F)c2)NC(=O)Cn2nc(C(F)F)c3c2C(F)(F)C2CC32)cc1 (stereo partly drawn) [Example 217, 2-(3-(difluoromethyl)-5,5-difluoro-3b,4,4a,5-tetrahydro-1H-cyclopropa[3,4]cyclopenta[1,2-c]pyrazol-1-yl)-N—((S)-2-(3,5-difluorophenyl)-1-(3-(4-(2-methoxyethoxy)phenyl)pyridin-2-yl)ethyl)acetamide]
[1]
  inhibition at 2 µM: 92%
[2]; [3]
  CC50 at 5 days: 29600 nM

## NC(=O)c1cccc(-c2cccnc2[C@H](Cc2cc(F)cc(F)c2)NC(=O)Cn2ccc3ccc(=O)[nH]c32)c1 [Example 298C, (S)-3-(2-(2-(3,5-difluorophenyl)-1-(2-(6-oxo-6,7-dihydro-1H-pyrrolo[2,3-b]pyridin-1-yl)acetamido)ethyl)pyridin-3-yl)benzamide]
[1]
  inhibition at 2 µM: 61%
[2]; [3]
  CC50 at 5 days: > 53000 nM

## CC(=O)c1c(C)n(CC(=O)N[C@@H](Cc2cc(F)cc(F)c2)c2ncccc2-c2cccc(C(N)=O)c2)c2ccccc12 [Example 495, (S)-3-(2-(1-(2-(3-acetyl-2-methyl-1H-indol-1-yl)acetamido)-2-(3,5-difluorophenyl)ethyl)pyridin-3-yl)benzamide]
[1]
  inhibition at 2 µM: 85%
[2]; human, CC50 (nM), uninfected MT-4 cells, same protocol as Test A, CellTiter-Glo
  CC50 at 5 days: 15500 nM

## O=C(Cn1nc(C(F)F)c2c1C(F)(F)C1CC21)N[C@@H](Cc1cc(F)cc(F)c1)c1ncccc1-c1cncc2ccccc12 (stereo partly drawn) [Example 120, 2-(3-(difluoromethyl)-5,5-difluoro-3b,4,4a,5-tetrahydro-1H-cyclopropa[3,4]cyclopenta[1,2-c]pyrazol-1-yl)-N—((S)-2-(3,5-difluorophenyl)-1-(3-(isoquinolin-4-yl)pyridin-2-yl)ethyl)acetamide]
[1]
  inhibition at 2 µM: 73%
[2]; [3]
  CC50 at 5 days: 13800 nM

## NC(=O)c1cc(-c2cccnc2[C@H](Cc2cc(F)cc(F)c2)NC(=O)C2CCCN2C(=O)C2CCCC2)ccc1F (stereo partly drawn) [Example 153, N—((S)-1-(3-(3-carbamoyl-4-fluorophenyl)pyridin-2-yl)-2-(3,5-difluorophenyl)ethyl)-1-(cyclopentanecarbonyl)pyrrolidine-2-carboxamide]
[1]
  inhibition at 2 µM: 10%
[2]; [3]
  CC50 at 5 days: 17300 nM

## Cc1cc2ncn(CC(=O)N[C@@H](Cc3cc(F)cc(F)c3)c3ncccc3-c3ccc(F)c(C(N)=O)c3)c2cc1C [Example 564, (S)-5-(2-(2-(3,5-difluorophenyl)-1-(2-(5,6-dimethyl-1H-benzo[d]imidazol-1-yl)acetamido)ethyl)pyridin-3-yl)-2-fluorobenzamide]
[1]
  inhibition at 2 µM: 100%
[2]; [3]
  CC50 at 5 days: 10300 nM

## CC(C)(C)OC(=O)NCc1ccc2c(CC(=O)N[C@@H](Cc3cc(F)cc(F)c3)c3ncccc3-c3cccc(C(N)=O)c3)c[nH]c2c1 [Example 502F, (S)-tert-butyl (3-(2-(1-(3-(3-carbamoylphenyl)pyridin-2-yl)-2-(3,5-difluorophenyl)ethylamino)-2-oxoethyl)-1H-indol-6-yl)methylcarbamate]
[1]
  inhibition at 2 µM: 50%
[2]; [3]
  CC50 at 5 days: 3050 nM

## CCNCc1cn(CC(=O)N[C@@H](Cc2cc(F)cc(F)c2)c2ncccc2-c2ccc(F)c(C(N)=O)c2)nc1C(F)(F)F [Example 314, (S)-5-(2-(2-(3,5-difluorophenyl)-1-(2-(4-((ethylamino)methyl)-3-(trifluoromethyl)-1H-pyrazol-1-yl)acetamido)ethyl)pyridin-3-yl)-2-fluorobenzamide]
[1]
  inhibition at 2 µM: 3%
[2]; [3]
  CC50 at 5 days: 23600 nM

## O=C(Cn1nc(C(F)F)c2c1C(F)(F)C1CC21)N[C@@H](Cc1cc(F)cc(F)c1)c1ncccc1-c1ccc(OC(F)F)cc1 (stereo partly drawn) [Example 231, N—((S)-1-(3-(4-(difluoromethoxy)phenyl)pyridin-2-yl)-2-(3,5-difluorophenyl)ethyl)-2-(3-(difluoromethyl)-5,5-difluoro-3b,4,4a,5-tetrahydro-1H-cyclopropa[3,4]cyclopenta[1,2-c]pyrazol-1-yl)acetamide]
[1]
  inhibition at 2 µM: 79%
[2]; [3]
  CC50 at 5 days: 43200 nM

## CCOC(=O)c1cn(CC(=O)N[C@@H](Cc2cc(F)cc(F)c2)c2ncccc2-c2ccc(F)c(C(N)=O)c2)nc1C(F)(F)F [Example 289, (S)-ethyl 1-(2-(1-(3-(3-carbamoyl-4-fluorophenyl)pyridin-2-yl)-2-(3,5-difluorophenyl)ethylamino)-2-oxoethyl)-3-(trifluoromethyl)-1H-pyrazole-4-carboxylate]
[1]
  inhibition at 2 µM: 2%
[2]; [3]
  CC50 at 5 days: 26400 nM

## O=C(N[C@@H](Cc1cc(F)cc(F)c1)c1ncccc1-c1ccc(Cl)cc1)C(c1c[nH]c2ccc(F)cc12)C(F)(F)F (single isomer, unassigned) [Example 36F]
[1]; percent inhibition of virus-induced cell killing, from dose response curve at 2 uM drug
  % inhibition at 2 μM: 15%
[2]; [3]
  CC50 at 5 days: 7200 nM

## CCOc1nn(CC(=O)N[C@@H](Cc2cc(F)cc(F)c2)c2ncccc2-c2ccc(F)c(C(N)=O)c2)c2c1CCCC2 [Example 179C, (S)-5-(2-(2-(3,5-difluorophenyl)-1-(2-(3-ethoxy-4,5,6,7-tetrahydro-1H-indazol-1-yl)acetamido)ethyl)pyridin-3-yl)-2-fluorobenzamide]
[1]
  inhibition at 2 µM: 52%
[2]; [3]
  CC50 at 5 days: 22300 nM

## NC(=O)c1cc(-c2cccnc2[C@H](Cc2cc(F)cc(F)c2)NC(=O)Cc2c[nH]c3ccc(O)cc23)ccc1Cl [Example 40, (S)-2-chloro-5-(2-(2-(3,5-difluorophenyl)-1-(2-(5-hydroxy-1H-indol-3-yl)acetamido)ethyl)pyridin-3-yl)benzamide]
[1]
  inhibition at 2 µM: 99%
[2]; [3]
  CC50 at 5 days: > 48900 nM

## CS(=O)(=O)n1cc(CC(=O)N[C@@H](Cc2cc(F)cc(F)c2)c2ncccc2-c2ccc(F)c(C(N)=O)c2)c2cc(F)ccc21 [Example 444, (S)-5-(2-(2-(3,5-difluorophenyl)-1-(2-(5-fluoro-1-(methylsulfonyl)-1H-indol-3-yl)acetamido)ethyl)pyridin-3-yl)-2-fluorobenzamide]
[1]
  inhibition at 2 µM: 23%
[2]; [3]
  CC50 at 5 days: 15500 nM

## O=C(Cc1c[nH]c2ccc(F)cc12)N[C@@H](Cc1cc(F)cc(F)c1)c1ncccc1-c1cnc2[nH]ccc2c1 [Example 430, (S)—N-(1-(3-(1H-pyrrolo[2,3-b]pyridin-5-yl)pyridin-2-yl)-2-(3,5-difluorophenyl)ethyl)-2-(5-fluoro-1H-indol-3-yl)acetamide]
[1]
  inhibition at 2 µM: 31%
[2]; [3]
  CC50 at 5 days: 26300 nM

## O=C(Cc1c[nH]c2ccc(F)cc12)N[C@@H](Cc1cc(F)cc(F)c1)c1ncccc1-c1ccc(F)c(F)c1 [Example 406, (S)—N-(2-(3,5-difluorophenyl)-1-(3-(3,4-difluorophenyl)pyridin-2-yl)ethyl)-2-(5-fluoro-1H-indol-3-yl)acetamide]
[1]
  inhibition at 2 µM: 27%
[2]; [3]
  CC50 at 5 days: 11400 nM

## NC(=O)c1cc(-c2cccnc2[C@H](Cc2cc(F)cc(F)c2)NC(=O)Cn2nc(C(F)F)c3c2CC(F)(F)C3)ccc1F [Example 241D, (S)-5-(2-(1-(2-(3-(difluoromethyl)-5,5-difluoro-5,6-dihydrocyclopenta[c]pyrazol-1(4H)-yl)acetamido)-2-(3,5-difluorophenyl)ethyl)pyridin-3-yl)-2-fluorobenzamide]
[1]
  inhibition at 2 µM: 78%
[2]; [3]
  CC50 at 5 days: 25400 nM

## O=C(Cn1nc(C(F)F)c2c1C(F)(F)C1CC21)N[C@@H](Cc1cc(F)cc(F)c1)c1ncccc1-c1ccc(S(=O)(=O)NC2CCCCC2)cc1 (stereo partly drawn) [Example 98, (S)—N-(1-(3-(4-(N-cyclohexylsulfamoyl)phenyl)-pyridin-2-yl)-2-(3,5-difluorophenyl)ethyl)-2-(3-(difluoromethyl)-5,6-dihydro-4,5-(methano)-6,6-difluoro-cyclopenta[c]pyrazol-1(4H)-yl)acetamide]
[1]
  inhibition at 2 µM: 13%
[2]; [3]
  CC50 at 5 days: 18000 nM

## Cc1ccc2c(ccn2CC(=O)N[C@@H](Cc2cc(F)cc(F)c2)c2ncccc2-c2ccc(F)c(C(N)=O)c2)c1 [Example 547, (S)-5-(2-(2-(3,5-difluorophenyl)-1-(2-(5-methyl-1H-indol-1-yl)acetamido)ethyl)pyridin-3-yl)-2-fluorobenzamide]
[1]
  inhibition at 2 µM: 45%
[2]; [3]
  CC50 at 5 days: 13300 nM

## Cc1ccccc1-c1cccnc1[C@H](Cc1ccccc1)NC(=O)Cn1nc(C(F)(F)F)c2c1CCCC2 [Example 17, (S)—N-(2-phenyl-1-(3-o-tolylpyridin-2-yl)ethyl)-2-(3-(trifluoromethyl)-4,5,6,7-tetrahydro-1H-indazol-1-yl)acetamide]
[1]
  inhibition at 2 µM: 70%
[2]; [3]
  CC50 at 5 days: 13800 nM

## O=C(Cc1c[nH]c2ccc(F)cc12)N[C@@H](Cc1cc(F)cc(F)c1)c1ncccc1-c1ccc(OC(F)(F)F)cc1 [Example 431, (S)—N-(2-(3,5-difluorophenyl)-1-(3-(4-(trifluoromethoxy)phenyl)pyridin-2-yl)ethyl)-2-(5-fluoro-1H-indol-3-yl)acetamide]
[1]
  inhibition at 2 µM: 7%
[2]; [3]
  CC50 at 5 days: 6390 nM

## O=C(Cn1nc(C(F)F)c2c1C(F)(F)CCC2(F)F)N[C@@H](Cc1cc(F)cc(F)c1)c1ncccc1-c1ccc2ccc(=O)[nH]c2c1 [Example 490D, (S)-2-(3-(difluoromethyl)-4,4,7,7-tetrafluoro-4,5,6,7-tetrahydro-1H-indazol-1-yl)-N-(2-(3,5-difluorophenyl)-1-(3-(2-oxo-1,2-dihydroquinolin-7-yl)pyridin-2-yl)ethyl)acetamide]
[1]
  inhibition at 2 µM: 87%
[2]; [3]
  CC50 at 5 days: 38000 nM
